Patent publication US11696537B2, “Composition and method for increasing the content of glucosinolates in adult plants of the genus brassica” (CONSEJO SUPERIOR DE INVESTIGACIONES CIENTÍFICAS (CSIC), priority 2018, dated 2023)

Experiments:
[1] = test system: Brassica oleracea var. Italica Parthenon; test: Greenhouse test: concentration of glucosinolates on leaves and inflorescences after foliar application; type: in vivo
Description: (§1) In a growth chamber, seeds of the broccoli cultivar (Brassica oleracea var. Italica) Parthenon which grew for 30 days were germinated. Subsequently, they were allowed to grow in a greenhouse for 75 days until the inflorescences reached commercial size. In this case, foliar application of the treatments indicated below was carried out by spraying between 100 and 150 ml per plant: one at the time the flower bud appears and the following applications 5 and 10 days, respectively, after the first application.
Control composition: consisting of a solution containing 0.2% by volume of ethanol and 99.8% by volume of water.
Surfactant composition 1 (Triton X-100): consisting of a solution containing 0.1% by volume of Triton X-100 surfactant and 99.9% by volume of water.
Surfactant composition 2 (MPP): consisting of a solution containing 0.1% by volume of the modified polysiloxane polyether surfactant and 99.9% by volume of water.
Elicitor composition (MeJA): consisting of a solution containing 0.0022% by volume of MeJA, 0.2% by volume of ethanol and 99.7978% by volume of water.
Composition 2 (MeJA+Triton X-100): consisting of a solution containing 0.0022% by volume of MeJA, 0.2% by volume of ethanol, 0.1% by volume of Triton X-100 and 99.70% by volume of water.
Composition 1 (MeJA+MPP): A solution was prepared containing 0.0022% by volume of MeJA (for a final concentration of 100 micromolar in the composition), 0.2% by volume of ethanol, 0.1% by volume of polysiloxane polyether and 99.7968% by volume of water.
Subsequently, the plants were harvested and the leaves and inflorescences were frozen in liquid nitrogen and immediately lyophilised to prevent the compounds of interest from degrading until it was time to determine the glucosinolates and metabolites of interest.
The analyses were carried out on the leaf and inflorescence at the time of collecting the commercial size. The method used for extracting glucosinolates was based on the method developed by the research group and currently in the public domain: Dominguez-Perles et al. (2010) Journal of Food Science 75, 383-392. The quantitative analysis was carried out by HPLC-DAD. The lyophilised and ground samples (100 mg) were extracted with 1 ml of 70% MeOH in a hot bath at 70° C. for 30 minutes, stirring every 5 minutes in a vortex, to optimise the extraction. The reaction was then stopped in an ice bath and the samples were centrifuged to precipitate the insoluble material, for 15 minutes, at 10,000 g and at 4° C. The supernatant was collected and the methanol was removed on a rotary evaporator with a thermostatically controlled bath at 38° C. The dry residue obtained was redissolved in ultra-pure water and filtered (00.22 μm of PVDF) for the subsequent analysis thereof.
Each sample (20 μl) was analysed in high-performance liquid chromatography (HPLC) equipped with a pump for binary eluent partitioning, an inline degasser, a photodiode detector autosampler (DAD). The compounds were separated in a C18 column measuring 250×4 mm and with a 0.4 um pore diameter, in reversed phase liquid chromatography (RP-HPLC) mode. The glucosinolates were identified using the methodology already described by the research group and publicly available for multipurpose analysis of intact glucosinolates (Martinez-Sánchez et al. 2006 Postharvest Biol. Technol. 42, 86-97; Dominguez-Perles et al. (2010) Journal of Food Sci. 75, 383-392), based on the retention times of the respective analytical peaks, the maximum absorption spectra thereof in the UV-Vis range and the comparison with commercially available external standards, sinigrin for aliphatic glucosinolates and glucobrassicin for indolic glucosinolates (Baenas et al. (2012) J. Agric. Food Chemistry, 60, 11409-11420). The detection was carried out at 227 nm and the concentration of glucosinolates was expressed in μmol/g of plant tissue dry weight. […]

[2] = Drop dispersion; type: physicochemical; settings: under binoculars (1.6×), FIG. 3
Description: The drop dispersion of Compositions 1 and 2 and that of elicitor Composition (MeJA) was determined under binoculars (1.6×) (FIG. 3).

[3] = test system: Brassica oleracea var. Italica Parthenon; settings: in vivo
Description: as §1

Compound | Total GLS ([1]; INFLORESCENCE) [mg/g DW] | mg GBS/g DW ([1]; INFLORESCENCE) [mg/g DW] | mg GRA/g DW ([1]; INFLORESCENCE) [mg/g DW] | mg NGB/g DW ([1]; INFLORESCENCE) [mg/g DW] | Total GLS ([1]; LEAF) [mg/g DW] | mg GBS/g DW ([1]; LEAF) [mg/g DW] | mg GRA/g DW ([1]; LEAF) [mg/g DW] | mg NGB/g DW ([1]; LEAF) [mg/g DW] | drop dispersion [2] | % of Commercial heads [3] [%]
CC/C=C\CC1C(=O)CCC1CC(=O)OC (centres unmarked) [MeJA, methyl jasmonate] | 4.97 | 2.05 | 1.70 | 1.22 | 1.75 | 0.71 | 0.35 | 0.69 | no dispersion is observed | 100
Triton X-100 | – | – | – | – | – | – | – | – | – | 81.1
